# Experimental data: patent publication US7250269B2, “Composition for assaying glycoprotein” (Asahi Kasei Pharma Corporation, priority 2001, dated 2007)
# Assays:
# [1] = target: T1, HSA substrate solution; Albumin Human (Homo sapiens, UniProt P02768); assay: Activity of various proteases on HSA substrate solution (released glycated amino acids/peptides assayed with R-FOD); assay type: biochemical; details: pH 8.0; 37° C. for 30 minutes
# T1 construct: purchased Sigma-Aldrich Co
# Method: (§1) • 1. […] GA % was assayed using a glycated albumin analyzer (GAA-2000, manufactured by ARKRAY, Inc.). • 2. G-II and III substrate solutions, FRA value=48 μmol/L [Globulins Human Cohn Fraction II and III; 16.9 mg/ml (manufactured by Sigma-Aldrich Co.)] • 3. G-IV substrate solution, FRA value=26 μmol/L [Globulins Human Cohn Fraction IV; 6 mg/ml (manufactured by Sigma-Aldrich Co.)] • 4. G-I substrate solution, FRA value=77 μmol/L [Glovenin I: immunoglobulin preparation (manufactured by Takeda Chemical Industries, Ltd.)] • 5. Hb substrate solution: Hemoglobin Human; 55 mg/ml, glycated hemoglobin rate: HbA1c=4.5% [manufactured by Sigma-Aldrich Co., the HbA1c value was determined using a glycated hemoglobin analyzer (Hi-Auto A1C HA-8150, manufactured by ARKRAY, Inc.)]. […]
# (§2) 300 μl of the above reaction solution for assaying glycated amino acids was added to a cell and incubated for three minutes at 37° C. […] Absorbances (A0 blank and A1 blank) were measured. The reaction of protease with glycated proteins is indicated by the following absorbance change. ΔA=(A1−A0)−(A1 blank−A0 blank)
# [2] = test system: G-I substrate solution (Glovenin I: immunoglobulin preparation); assay: Activity of various proteases on G-I substrate solution (R-FOD assay); assay type: biochemical; details: pH 8.0, 37° C. for 30 minutes
# Method: as §1, §2
# [3] = target: T2, Hb substrate solution: Hemoglobin Human (Homo sapiens, UniProt P68871+P69905); assay: Activity of various proteases on Hb substrate solution (R-FOD assay); assay type: biochemical; details: pH 8.0; 37° C. for 60 minutes
# T2 construct: purchased Sigma-Aldrich Co
# T2 sequence (P69905 2-142 limits assumed): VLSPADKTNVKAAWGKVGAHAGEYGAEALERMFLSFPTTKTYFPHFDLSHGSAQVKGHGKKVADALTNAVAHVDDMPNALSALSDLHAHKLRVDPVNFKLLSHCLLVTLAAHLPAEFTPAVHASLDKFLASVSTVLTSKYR
# T2 sequence (P68871 2-147 limits assumed): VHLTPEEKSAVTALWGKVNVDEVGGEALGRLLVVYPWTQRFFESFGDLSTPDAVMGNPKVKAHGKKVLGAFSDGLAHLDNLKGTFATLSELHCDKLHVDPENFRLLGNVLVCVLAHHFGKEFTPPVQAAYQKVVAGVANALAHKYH
# Method: as §1, §2
# Protease type-XXIV [4] = assay: Screening of globulin component-selective protease inhibitors (HSA substrate with/without γ-globulin); assay type: biochemical, Bacillus; details: control 23.8
# Text: Using protease type-XXIV (manufactured by Sigma-Aldrich Co.) having high reactivity with the HSA substrate solution, components that decrease the protease reaction with the above globulin substrate solutions were screened based on the HSA substrate solution.
# In the R-1 proteolytic reagent, as the deoxycholic acid amide, bisgluconamidopropyldeoxycholamide was used; as the cholic acid amide, 3-[(3-cholamidopropyl)dimethvlammonio]propane sulfonic acid, 3-[(3-cholamidopropyl)dimethylammonio]-2-hydroxypropane sulfonic acid, or bisgluconamidopropylcholamide was used; as the quaternary ammonium salt, benzyltriethylan chloride or benzyltri-n-butylammonium chloride was used; and as quatemary ammonium salt-type cationic surfactant, lauryltrimethylammonium chloride or lauryldimethylamine oxide was used.
# • 1. HSA substrate solution: Albumin Human: 40 mg/ml, GA %=10.5% [manufactured by Wako Pure Chemical Industries, Ltd., the albumin concentration in the substrate solution was assayed using an albumin assay kit (albumin II-HA Test Wako; manufactured by Wako Pure Chemical Industries, Ltd.). GA % was assayed using a glycated albumin analyzer (GAA-2000, manufactured by ARKRAY, Inc.). • 2. γ-globulin addition substrate solution, 17.0 mg/ml of γ-globulin [γ-Globulins Human (manufactured by Sigma-Aldrich Co.), Fructosamine value=34 μM] was added to the above HSA substrate solution. <Reaction Procedure>
# Absorbances at a wavelength of 546 nm were measured before and after the addition of R-2. The difference of the two measurements was regarded as the absorbance change. The same procedure was conducted using distilled water instead of the substrate to prepare a blank sample. In addition, a reaction solution without the addition of the globulin-selective protease inhibitor was used as a control.
# ΔA (HSA) was calculated by subtracting the absorbance change of the blank sample from the absorbance change obtained for the HSA substrate solution. ΔA(+γ-globulin) was calculated by subtracting the absorbance change of the blank sample from the absorbance change obtained for the substrate solution to which γ-globulin was added. Effect of γ-globulin addition=(ΔA(+γ-globulin)−ΔA(HSA))/ΔA(HSA)×100(%)
# Protease type-XXIV [5] = assay: Screening of globulin component-selective protease inhibitors using Hb substrate solution; assay type: biochemical, Bacillus; details: Hb substrate solution instead of HSA
# Method: The same measurement was conducted using the Hb substrate solution instead of the HSA substrate solution, provided that when the Hb substrate solution was used, proteins were removed using trichloroacetic acid after the reaction with R-1, then the residue was neutralized and R-2 was added.
# T1 sequence (P02768 25-609): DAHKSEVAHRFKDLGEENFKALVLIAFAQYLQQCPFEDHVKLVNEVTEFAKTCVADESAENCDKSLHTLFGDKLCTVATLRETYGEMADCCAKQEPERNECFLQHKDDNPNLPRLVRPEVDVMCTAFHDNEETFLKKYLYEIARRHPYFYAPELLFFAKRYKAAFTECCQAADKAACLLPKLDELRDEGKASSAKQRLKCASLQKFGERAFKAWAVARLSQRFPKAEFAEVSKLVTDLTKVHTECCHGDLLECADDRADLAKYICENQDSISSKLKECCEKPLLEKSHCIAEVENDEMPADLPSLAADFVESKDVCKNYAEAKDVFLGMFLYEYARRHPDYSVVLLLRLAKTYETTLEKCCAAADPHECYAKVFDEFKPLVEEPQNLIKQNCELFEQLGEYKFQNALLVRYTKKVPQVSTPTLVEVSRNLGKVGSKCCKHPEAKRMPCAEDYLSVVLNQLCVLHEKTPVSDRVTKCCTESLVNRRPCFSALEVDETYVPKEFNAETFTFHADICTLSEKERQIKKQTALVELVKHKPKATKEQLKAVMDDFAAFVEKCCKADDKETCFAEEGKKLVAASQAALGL
Molecule,ΔA HSA [1] [mAbs],ΔA Gl [2] [mAbs],ΔA Hb [3] [mAbs],Effect of γ-globulin (%) (Protease type-XXIV [4]; additive concentration 0.10%),effect of inhibiting a protease reaction with globulin (Protease type-XXIV [5]),Effect of γ-globulin (%) (Protease type-XXIV [4]; additive concentration 0.21 mg/ml)
Chymotrypsin,25,103,7,,,
Pancreatin,52,100,17,,,
C[N+](C)(C)CC(=O)O [Betaine],,,,7.6,effect of inhibiting a protease reaction with globulin,
Concanavalin A,,,,,effect of inhibiting a protease reaction with globulin,14.9
